Experimental data published in ChEMBL document CHEMBL5120811, “Nocathiacin, Thiazomycin, and Polar Analogs Are Highly Effective Agents against Toxigenic Clostridioides difficile” (J Nat Prod, 2022).
Values after ≈ are worked out from the molar mass of the structure shown.

Legend:
Clostridioides difficile [1] = experiment: Antibacterial activity against Clostridioides difficile assessed as inhibition of bacterial growth by CLSI based agar dilution susceptibility analysis; type: functional
[2] = Toxicity in Clostridioides difficile SM8-6865 infected golden hamster model assessed as survival at 1.56 mg/kg, po administered once daily for 4 days; type: organism-based, Mesocricetus auratus; details: in vivo, 96 h, time 4 day
Clostridioides difficile [3] = experiment: Antibacterial activity against Clostridioides difficile SM8-6865 in CDAD golden hamster model assessed as protection from lethal infection at 1.56 mg/kg, po administered once daily for 4 days; type: functional; details: time 4 day
Clostridioides difficile [4] = experiment: Antibacterial activity against Clostridioides difficile SM8-6865 in CDAD golden hamster model assessed as log reduction in cecum bacterial content at 1.56 mg/kg, po administered once daily for 4 days; type: functional; details: time 4 day
Bacteroides fragilis = experiment: Antibacterial activity against Bacteroides fragilis ATCC 25285 assessed as inhibition of bacterial growth by CLSI based agar dilution susceptibility analysis; type: functional
[5] = Selectivity ratio of MIC for Bacteroides fragilis ATCC 25285 to MIC for Clostridioides difficile; type: functional
Clostridioides difficile [6] = experiment: Antibacterial activity against Clostridioides difficile SM8-6865 in CDAD golden hamster model assessed as protection from lethal infection at 1.56 mg/kg, po administered twice daily for 4 days; type: functional; details: time 4 day
Clostridioides difficile [7] = experiment: Antibacterial activity against Clostridioides difficile SM8-6865 in CDAD golden hamster model assessed as protection from lethal infection at 6.25 mg/kg, po administered twice daily for 4 days; type: functional; details: time 4 day
Clostridioides difficile [8] = experiment: Antibacterial activity against Clostridioides difficile SM8-6865 in CDAD golden hamster model assessed as log reduction in cecum bacterial content at 1.56 mg/kg, po administered twice daily for 4 days; type: functional; details: time 4 day
[9] = Drug concentration in golden hamster caecum at 6.25 mg/kg, po measured after 24 hrs by LC-MS/MS analysis; type: ADME, organism-based, Mesocricetus auratus; details: read-out: Ct
[10] = Drug concentration in golden hamster caecum at 6.25 mg/kg, po measured after 1 hr by LC-MS/MS analysis; type: ADME, organism-based, Mesocricetus auratus; details: read-out: Ct
Clostridioides difficile [11] = experiment: Antibacterial activity against Clostridioides difficile assessed as inhibition of bacterial growth incubated for 18 to 24 hrs by broth microdilution method; type: functional; details: time 18-24 hrs
Clostridioides difficile [12] = experiment: Antibacterial activity against Clostridioides difficile SM8-6865 in CDAD golden hamster model assessed as log reduction in cecum bacterial content at 6.25 mg/kg, po administered twice daily for 4 days; type: functional; details: time 4 day
Clostridioides difficile [13] = experiment: Antibacterial activity against Clostridioides difficile SM8-6865 in CDAD golden hamster model assessed as protection from lethal infection at 0.39 o 1.56 mg/kg, po administered twice daily for 4 days; type: functional; details: time 4 day

Structure (SMILES): CN[C@H](CC(C)C)C(=O)N[C@H]1C(=O)N[C@@H](CC(N)=O)C(=O)N[C@H]2C(=O)N[C@H]3C(=O)N[C@H](C(=O)N[C@H](C(=O)O)c4cc(O)cc(O)c4-c4cc3ccc4O)[C@H](O)c3ccc(c(Cl)c3)Oc3cc2cc(c3O[C@@H]2O[C@H](CO)[C@@H](O)[C@H](O)[C@H]2O[C@H]2C[C@](C)(N)[C@H](O)[C@H](C)O2)Oc2ccc(cc2Cl)[C@H]1O [VANCOMYCIN]
- MIC50 (Clostridioides difficile [1]): 0.25 µg/mL (≈ 0.173 µM)
- Activity [2]: Non-Toxic
- Activity (Clostridioides difficile [3]): 100%
- Activity (Clostridioides difficile [4]): >5 log10CFU/g
- MIC (Bacteroides fragilis): 0.5 µg/mL (≈ 0.345 µM)

Structure (SMILES): C=C(NC(=O)c1csc(-c2nc3c(cc2O)-c2nc(cs2)C(=O)N[C@@H]([C@@H](C)O)C(=O)N/C(=C(\C)OC)c2nc(cs2)C(=O)N[C@@H]2c4nc(cs4)C(=O)N[C@@H](COC(=O)c4c5c6c(cccc6n4O)COC(=O)[C@@H](O[C@H]4C[C@]6(C)OCN(C)[C@@H]6[C@H](C)O4)[C@H]2OC5)c2nc-3cs2)n1)C(N)=O [THIAZOMYCIN]
- MIC50 (Clostridioides difficile [1]): 0.06 µg/mL (≈ 0.0418 µM)
- Selectivity ratio [5]: 100
- MIC (Bacteroides fragilis): 8 µg/mL (≈ 5.57 µM)

Structure (SMILES): CCc1c(Cl)c(O)c(Cl)c(O)c1C(=O)O[C@H]1[C@H](O)[C@H](OC)[C@H](OC/C2=C\C=C\C[C@H](O)/C(C)=C/[C@H](CC)[C@@H](O[C@@H]3OC(C)(C)[C@@H](OC(=O)C(C)C)[C@H](O)[C@@H]3O)/C(C)=C/C(C)=C/C[C@@H]([C@@H](C)O)OC2=O)O[C@@H]1C [FIDAXOMICIN]
- MIC50 (Clostridioides difficile [1]): 0.5 µg/mL (≈ 0.473 µM)
- MIC (Bacteroides fragilis): > 16 µg/mL

Structure (SMILES): Cc1ncc([N+](=O)[O-])n1CCO [METRONIDAZOLE]
- MIC50 (Clostridioides difficile [1]): ≤ 0.015 µg/mL
- MIC (Bacteroides fragilis): > 16 µg/mL

Structure (SMILES): C=C(NC(=O)c1csc(-c2nc3c(cc2O)-c2nc(cs2)C(=O)N[C@@H]([C@@H](C)O)C(=O)N/C(=C(\C)OC)c2nc(cs2)C(=O)N[C@@H]2c4nc(cs4)C(=O)N[C@@H](COC(=O)c4c5c6c(cccc6n4O)COC(=O)[C@@H](O[C@H]4C[C@](C)(O)[C@H](N(C)C)[C@H](C)O4)[C@H]2OC5)c2nc-3cs2)n1)C(N)=O [MJ347-81F4 A]
- Activity (Clostridioides difficile [6]): 66%
- Activity (Clostridioides difficile [7]): 100%
- Activity (Clostridioides difficile [8]): 4 log10CFU/g
- MIC50 (Clostridioides difficile [1]): 0.03 µg/mL (≈ 0.0209 µM)
- Selectivity ratio [5]: 100
- concentration at 24 h [9]: 190 nM
- concentration at 1 h [10]: 5.4 µM
- MIC (Clostridioides difficile [11]): 0.06 µg/mL (≈ 0.0417 µM)
- MIC (Bacteroides fragilis): 4 µg/mL (≈ 2.78 µM)
- Activity (Clostridioides difficile [12]): >5 log10CFU/g

Structure (SMILES): CO/C(C)=C1/NC(=O)[C@H]([C@@H](C)O)NC(=O)c2csc(n2)-c2cc(OC)c(-c3nc(C(=O)NCCCN4CCOCC4)cs3)nc2-c2csc(n2)[C@@H]2COC(=O)c3c4c5c(cccc5n3O)COC(=O)[C@@H](O[C@H]3C[C@](C)(O)[C@H](N(C)C)[C@H](C)O3)[C@@H](OC4)[C@H](NC(=O)c3csc1n3)c1nc(cs1)C(=O)N2
- MIC50 (Clostridioides difficile [1]): ≤ 0.015 µg/mL
- Selectivity ratio [5]: 100
- MIC (Bacteroides fragilis): 4 µg/mL (≈ 2.65 µM)

Structure (SMILES): CO/C(C)=C1/NC(=O)[C@H]([C@@H](C)O)NC(=O)c2csc(n2)-c2cc(O)c(-c3nc(C(=O)NCCCN4CCOCC4)cs3)nc2-c2csc(n2)[C@@H]2COC(=O)c3c4c5c(cccc5n3O)COC(=O)[C@@H](O[C@H]3C[C@](C)(O)[C@H](N(C)C)[C@H](C)O3)[C@@H](OC4)[C@H](NC(=O)c3csc1n3)c1nc(cs1)C(=O)N2
- Activity (Clostridioides difficile [7]): 100%
- MIC50 (Clostridioides difficile [1]): 0.03 µg/mL (≈ 0.0201 µM)
- Selectivity ratio [5]: 100
- Activity (Clostridioides difficile [13]): 16%
- concentration at 24 h [9]: 80 nM
- concentration at 1 h [10]: 6.56 µM
- MIC (Bacteroides fragilis): 4 µg/mL (≈ 2.67 µM)
- Activity (Clostridioides difficile [12]): >5 log10CFU/g
